Data as given in patent US11242539B2, “Elite event EE-GM4 and methods and kits for identifying such event in biological samples” (priority 2016, dated 2022).

System: soybean plants containing event EE-GM4
Assay: HPPD inhibitor herbicide tolerance field trials (maximum phytotoxicity)
Format: in vivo, Glycine max
Conditions: for tolerance of plants with EE-GM4 to herbicide: field; for average maximum phytotoxicity value: several field trials across 2 years
Text: Numbers in ( ) below a treatment give the number of trials included in the bar, the number on top of each bar gives the average maximum phytotoxicity value for that treatment. Treatments applied were: IFT=isoxaflutole, MST=mesotrione, PE=pre-emergence, PO=post-emergence (at V2-V3 stage, with adjuvants crop oil concentrate and ammonium sulfate added to increase herbicide activity). Rates shown are in gram active ingredient/hectare (4× dose in pre-emergence, 2× dose in post-emergence).
Tolerance of plants comprising EE-GM4 to HPPD inhibitor herbicides was tested at different locations in the field over 2 years. […] All post-emergence treatments were at the V2-V3 stage, with adjuvants crop oil concentrate and ammonium sulfate added to increase herbicide activity.
The “maximum phytotoxicity” as used herein is the highest phytotoxicity rating recorded at any observation during the duration of a trial (with 3 to 4 observations per trial). In existing weed control applications, a normal (lx) dose for isoxaflutole (IFT) in pre- or post-emergence application and for MST in post-emergence application is 105 gr/ha, and a normal (1×) dose for mesotrione in pre-emergence application is 210 gr/ha.
Also, in several field trials across 2 years, soybean plants with event EE-GM4 had good tolerance towards experimental HPPD inhibitor compound 2-methyl-N-(5-methyl-1,3,4-oxadiazol-2-yl)-3-(methylsulfonyl)-4-(trifluoromethyl)benzamide (U.S. Pat. No. 9,101,141) when applied pre-emergence at 400 gr ai/ha or post-emergence at 200 gr ai/ha, respectively (the average maximum phytotoxicity value for each treatment was below 20%). […] All post-emergence treatments were at the V2-V3 stage, with adjuvants crop oil concentrate and ammonium sulfate added to increase herbicide activity.

[1] = applied post-emergence at V2-V3 stage with crop oil concentrate and ammonium sulfate, over 2 years
[2] = applied pre-emergence, different locations over 2 years

## CS(=O)(=O)c1ccc(C(=O)C2C(=O)CCCC2=O)c([N+](=O)[O-])c1 [mesotrione, 2-[4-(Methylsulfonyl)-2-nitrobenzoyl]cyclohexane-1,3-dione]
[1]
  tolerance of plants with EE-GM4 to herbicide: commercially relevant tolerance
[2]
  tolerance of plants with EE-GM4 to herbicide: commercially relevant tolerance

## CSc1c(C(F)(F)F)ccc(C(=O)Nc2nnnn2C)c1Cl [2-chloro-3-(methylsulfanyl)-N-(1-methyl-1H-tetrazol-5-yl)-4-(trifluoromethyl)benzamide]
post-emergence at 100-150 gr ai/ha, V2-V3 stage with adjuvants
  average maximum phytotoxicity: 30%

## CS(=O)(=O)c1cc(C(F)(F)F)ccc1C(=O)c1cnoc1C1CC1 [isoxaflutole, (5-cyclopropyl-4-isoxazolyl)[2-(methylsulfonyl)-4-(trifluoromethyl)phenyl]methanone]
[1]
  tolerance of plants with EE-GM4 to herbicide: crop damage was a bit higher
[2]
  tolerance of plants with EE-GM4 to herbicide: commercially relevant tolerance

## Cc1nnc(NC(=O)c2ccc(C(F)(F)F)c(S(C)(=O)=O)c2C)o1 [2-methyl-N-(5-methyl-1,3,4-oxadiazol-2-yl)-3-(methylsulfonyl)-4-(trifluoromethyl)benzamide]
post-emergence at 200 gr ai/ha, V2-V3 stage with adjuvants
  average maximum phytotoxicity value: below 20%
pre-emergence at 400 gr ai/ha
  average maximum phytotoxicity value: below 20%
